Several values for one entry are separate records, joined by “and”; a condition that tells them apart may be missing. Identical values can stand only once. Counter-ions that a name gives are not always drawn.
Tested on: HMOX1 in Normal Human Lung Fibroblasts (NHLF)
Assay: HMOX1 Protein Expression (immunostaining, fold induction or % positive cells over DMSO)
Conditions: for % Cells Positive HMOX: Cpd. 0 uM
[1] = Homo sapiens, Fibroblast, read-out: Fold Induction of HMOX

CNC(=O)c1ccc2c(c1)nc(Nc1nc3ccc(OC(F)(F)F)cc3s1)n2C [HPP-A, 1-Methyl-2-(6-trifluoromethoxy-benzothiazol-2-ylamino)-1H-benzoimidazole-5-carboxylic acid methyl amide]
increase HMOX1 (FIG. 1 bar A) (156 nM HPP-A alone): 3.5 fold
combined effect on HMOX induction (FIG. 1 bar C) (156 nM HPP-A combined with 9.7 nM CDDO-Me): greater than additive
Fold Induction of HMOX (HPP-A 0.019 uM, Bardoxolone Methyl 0 uM): 0.97 fold
Fold Induction of HMOX (HPP-A 0.019 uM, Bardoxolone Methyl 0.0024 uM): 3.24 fold
Fold Induction of HMOX (HPP-A 0.019 uM, Bardoxolone Methyl 0.0048 uM): 2.88 fold
Fold Induction of HMOX (HPP-A 0.019 uM, Bardoxolone Methyl 0.0097 uM): 7.14 fold
Fold Induction of HMOX (HPP-A 0.019 uM, Bardoxolone Methyl 0.039 uM): 15.87 fold
Fold Induction of HMOX (HPP-A 0.019 uM, Bardoxolone Methyl 0.078 uM): 22.27 fold
Fold Induction of HMOX (HPP-A 0.019 uM, Bardoxolone Methyl 0.156 uM): 22.90 fold
Fold Induction of HMOX (HPP-A 0.019 uM, Bardoxolone Methyl 0.312 uM): 17.20 fold
Fold Induction of HMOX (HPP-A 0.039 uM, Bardoxolone Methyl 0 uM): 1.09 fold
Fold Induction of HMOX (HPP-A 0.039 uM, Bardoxolone Methyl 0.0024 uM): 2.32 fold
Fold Induction of HMOX (HPP-A 0.039 uM, Bardoxolone Methyl 0.0048 uM): 3.04 fold
Fold Induction of HMOX (HPP-A 0.039 uM, Bardoxolone Methyl 0.0097 uM): 5.31 fold
Fold Induction of HMOX (HPP-A 0.039 uM, Bardoxolone Methyl 0.019 uM): 8.57 fold
Fold Induction of HMOX (HPP-A 0.039 uM, Bardoxolone Methyl 0.078 uM): 18.69 fold
Fold Induction of HMOX (HPP-A 0.039 uM, Bardoxolone Methyl 0.156 uM): 17.24 fold
Fold Induction of HMOX (HPP-A 0.039 uM, Bardoxolone Methyl 0.312 uM): 17.44 fold
Fold Induction of HMOX (HPP-A 0.078 uM, Bardoxolone Methyl 0 uM): 1.92 fold
Fold Induction of HMOX (HPP-A 0.078 uM, Bardoxolone Methyl 0.0024 uM): 4.25 fold
Fold Induction of HMOX (HPP-A 0.078 uM, Bardoxolone Methyl 0.0048 uM): 4.72 fold
Fold Induction of HMOX (HPP-A 0.078 uM, Bardoxolone Methyl 0.0097 uM): 8.43 fold
Fold Induction of HMOX (HPP-A 0.078 uM, Bardoxolone Methyl 0.019 uM): 13.21 fold
Fold Induction of HMOX (HPP-A 0.078 uM, Bardoxolone Methyl 0.039 uM): 17.81 fold
Fold Induction of HMOX (HPP-A 0.078 uM, Bardoxolone Methyl 0.156 uM): 17.88 fold
Fold Induction of HMOX (HPP-A 0.078 uM, Bardoxolone Methyl 0.312 uM): 15.33 fold
Fold Induction of HMOX (HPP-A 0.156 uM, Bardoxolone Methyl 0 uM): 3.46 fold
Fold Induction of HMOX (HPP-A 0.156 uM, Bardoxolone Methyl 0.0024 uM): 7.32 fold
Fold Induction of HMOX (HPP-A 0.156 uM, Bardoxolone Methyl 0.0048 uM): 8.04 fold
Fold Induction of HMOX (HPP-A 0.156 uM, Bardoxolone Methyl 0.0097 uM): 12.05 fold
Fold Induction of HMOX (HPP-A 0.156 uM, Bardoxolone Methyl 0.019 uM): 15.95 fold
Fold Induction of HMOX (HPP-A 0.156 uM, Bardoxolone Methyl 0.039 uM): 17.59 fold
Fold Induction of HMOX (HPP-A 0.156 uM, Bardoxolone Methyl 0.078 uM): 18.44 fold
Fold Induction of HMOX (HPP-A 0.156 uM, Bardoxolone Methyl 0.312 uM): 15.98 fold
Fold Induction of HMOX (HPP-A 0.312 uM, Bardoxolone Methyl 0 uM): 9.82 fold
Fold Induction of HMOX (HPP-A 0.312 uM, Bardoxolone Methyl 0.0024 uM): 11.67 fold
Fold Induction of HMOX (HPP-A 0.312 uM, Bardoxolone Methyl 0.0048 uM): 13.59 fold
Fold Induction of HMOX (HPP-A 0.312 uM, Bardoxolone Methyl 0.0097 uM): 16.45 fold
Fold Induction of HMOX (HPP-A 0.312 uM, Bardoxolone Methyl 0.019 uM): 17.74 fold
Fold Induction of HMOX (HPP-A 0.312 uM, Bardoxolone Methyl 0.039 uM): 19.61 fold
Fold Induction of HMOX (HPP-A 0.312 uM, Bardoxolone Methyl 0.078 uM): 21.13 fold
Fold Induction of HMOX (HPP-A 0.312 uM, Bardoxolone Methyl 0.156 uM): 19.21 fold
Fold Induction of HMOX (HPP-A 0.625 uM, Bardoxolone Methyl 0 uM): 15.00 fold
Fold Induction of HMOX (HPP-A 0.625 uM, Bardoxolone Methyl 0.0024 uM): 15.70 fold
Fold Induction of HMOX (HPP-A 0.625 uM, Bardoxolone Methyl 0.0048 uM): 17.10 fold
Fold Induction of HMOX (HPP-A 0.625 uM, Bardoxolone Methyl 0.0097 uM): 17.18 fold
Fold Induction of HMOX (HPP-A 0.625 uM, Bardoxolone Methyl 0.019 uM): 16.84 fold
Fold Induction of HMOX (HPP-A 0.625 uM, Bardoxolone Methyl 0.039 uM): 17.24 fold
Fold Induction of HMOX (HPP-A 0.625 uM, Bardoxolone Methyl 0.078 uM): 18.60 fold
Fold Induction of HMOX (HPP-A 0.625 uM, Bardoxolone Methyl 0.156 uM): 18.68 fold
Fold Induction of HMOX (HPP-A 0.625 uM, Bardoxolone Methyl 0.312 uM): 12.69 fold
Fold Induction of HMOX (HPP-A 1.25 uM, Bardoxolone Methyl 0 uM): 16.17 fold
Fold Induction of HMOX (HPP-A 1.25 uM, Bardoxolone Methyl 0.0024 uM): 16.12 fold
Fold Induction of HMOX (HPP-A 1.25 uM, Bardoxolone Methyl 0.0048 uM): 17.26 fold
Fold Induction of HMOX (HPP-A 1.25 uM, Bardoxolone Methyl 0.0097 uM): 16.49 fold
Fold Induction of HMOX (HPP-A 1.25 uM, Bardoxolone Methyl 0.019 uM): 15.93 fold
Fold Induction of HMOX (HPP-A 1.25 uM, Bardoxolone Methyl 0.039 uM): 15.63 fold
Fold Induction of HMOX (HPP-A 1.25 uM, Bardoxolone Methyl 0.078 uM): 15.15 fold
Fold Induction of HMOX (HPP-A 1.25 uM, Bardoxolone Methyl 0.156 uM): 16.65 fold
Fold Induction of HMOX (HPP-A 1.25 uM, Bardoxolone Methyl 0.312 uM): 10.53 fold
Fold Induction of HMOX (HPP-A 2.5 uM, Bardoxolone Methyl 0 uM): 17.48 fold
Fold Induction of HMOX (HPP-A 2.5 uM, Bardoxolone Methyl 0.0024 uM): 18.81 fold
Fold Induction of HMOX (HPP-A 2.5 uM, Bardoxolone Methyl 0.0048 uM): 19.48 fold
Fold Induction of HMOX (HPP-A 2.5 uM, Bardoxolone Methyl 0.0097 uM): 19.42 fold
Fold Induction of HMOX (HPP-A 2.5 uM, Bardoxolone Methyl 0.019 uM): 17.04 fold
Fold Induction of HMOX (HPP-A 2.5 uM, Bardoxolone Methyl 0.039 uM): 14.71 fold
Fold Induction of HMOX (HPP-A 2.5 uM, Bardoxolone Methyl 0.078 uM): 14.33 fold
Fold Induction of HMOX (HPP-A 2.5 uM, Bardoxolone Methyl 0.156 uM): 12.49 fold
Fold Induction of HMOX (HPP-A 5 uM, Bardoxolone Methyl 0 uM): 17.72 fold
maximum HMOX1 fold induction (HPP-A alone, concentrations greater than or equal to 2500 nM): 18 fold
fold induction at 0.019 µM [1]: 10
fold induction at 0.039 µM [1]: 14.7
fold induction at 0.078 µM [1]: 19.5
fold induction at 0.156 µM [1]: 18.3
fold induction at 0.312 µM [1]: 17.4

COC(=O)/C=C/C(=O)OC [DMF, dimethyl fumarate, reference compound]
Hill slope of DMF dose response curves in Table 2 (Bach1 Inhibitor Conc. 0 uM, % Positive HMOX): 1.25 and 1.26
% Cells Positive HMOX (DMF 0.03 uM): 1.71%
% Cells Positive HMOX (DMF 0.1 uM): 1.21%
% Cells Positive HMOX (DMF 0.3 uM): 2.47%
% Cells Positive HMOX (DMF 1 uM): 4.38%
% Cells Positive HMOX (DMF 3 uM): 41.58%
% Cells Positive HMOX (DMF 10 uM): 74.35%
% Cells Positive HMOX (DMF 30 uM): 84.56%
fold induction at 0.03 µM [1]: 1.04
fold induction at 0.1 µM [1]: 1.06
fold induction at 0.3 µM [1]: 1.14
fold induction at 1 µM [1]: 1.39
fold induction at 3 µM [1]: 2.76
fold induction at 10 µM [1]: 4.45
fold induction at 30 µM [1]: 6.19
